Where two headings read alike, the source gives them in different places.
How the values were obtained:
guinea pig heart = assay: Second degree heart block (Wenckebach point), Langendorff guinea pig heart; conditions: for minimal effective concentration: Cavia porcellus, read-out: Wenckbach
Procedure: An electrode in the right ventricle monitored the electrocardiogram. […] The rate of agonist infusion was increased stepwise at intervals of 3-4 minutes until the appearance of second degree heart block (Wenckebach point).

A1 adenosine receptor [1] = molecular target: T1, A1 adenosine receptor (Cavia porcellus, UniProt P47745)
T1 sequence (P47745 1-326): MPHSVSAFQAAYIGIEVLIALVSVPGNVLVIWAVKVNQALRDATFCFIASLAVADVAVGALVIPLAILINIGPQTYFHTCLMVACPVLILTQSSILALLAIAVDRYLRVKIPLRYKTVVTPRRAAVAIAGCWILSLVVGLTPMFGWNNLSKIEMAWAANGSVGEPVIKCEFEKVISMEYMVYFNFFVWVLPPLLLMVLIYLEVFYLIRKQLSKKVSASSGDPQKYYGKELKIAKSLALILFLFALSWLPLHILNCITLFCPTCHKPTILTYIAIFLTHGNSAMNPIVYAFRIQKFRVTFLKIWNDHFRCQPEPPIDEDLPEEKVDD
Procedure: (§1) The perfusion buffer consisted of 120 mM NaCl, 27 mM NaHCO3, 3.7 mM KCl, 1.3 mM KH2 PO4, 0.64 mM MgSO4, 1.3 mM CaCl2, 2 mM pyruvate, and 5 mM glucose. […] Continuous drainage of the left ventricle by means of a catheter inserted across the mitral valve insured that this cardiac chamber did no external work. An electrode in the right ventricle monitored the electrocardiogram. Timed collections of cardiac effluent in a graduated cylinder during the steady-state phase of the flow responses to compound administration measured total coronary flow, which was also monitored by an in-line electromagnetic flowmeter in the aortic perfusion cannula. The quotient of the ratio of compound infusion (mol/min) divided by coronary flow rate (L/min) equals agonist concentration in the perfusate. […] The quotient of the EC50 of stimulus-QRS prolongation divided by the EC50 of coronary vasodilation provided an index of selectivity.

A2 adenosine receptor [2] = molecular target: A2 adenosine receptor (Cavia porcellus, UniProt P46616)
Procedure: as §1

A2 adenosine receptor [3] = system: A2 adenosine receptor
Procedure: as §1

[4] = in words; cited from earlier work
A2 adenosine receptor [5] = conditions: read-out: EC50 for coronary vasodilation; coronary arteries (vasodilation); cited from earlier work
A1 adenosine receptor [6] = molecular target: T1, A1 adenosine receptor; conditions: BIOASSAY RESULTS table
Procedure: as §1

[7] = concentration at appearance of second degree heart block
[8] = -LOG EC50 A1, BIOASSAY RESULTS table, A1
[9] = -LOG EC50 A2, BIOASSAY RESULTS table, A2
[10] = EC50 -CF, coronary vasodilation, perfused guinea pig heart paced at 260 beats/min
[11] = EC50-SQPR divided by EC50-CF, >1 indicates selectivity for A2 adenosine receptor
[12] = EC50 -SQPR, prolongation of stimulus-QRS interval by 50% of maximum response, perfused guinea pig heart

Chain of A2 adenosine receptor (Cavia porcellus, UniProt P46616) (P46616 whole entry): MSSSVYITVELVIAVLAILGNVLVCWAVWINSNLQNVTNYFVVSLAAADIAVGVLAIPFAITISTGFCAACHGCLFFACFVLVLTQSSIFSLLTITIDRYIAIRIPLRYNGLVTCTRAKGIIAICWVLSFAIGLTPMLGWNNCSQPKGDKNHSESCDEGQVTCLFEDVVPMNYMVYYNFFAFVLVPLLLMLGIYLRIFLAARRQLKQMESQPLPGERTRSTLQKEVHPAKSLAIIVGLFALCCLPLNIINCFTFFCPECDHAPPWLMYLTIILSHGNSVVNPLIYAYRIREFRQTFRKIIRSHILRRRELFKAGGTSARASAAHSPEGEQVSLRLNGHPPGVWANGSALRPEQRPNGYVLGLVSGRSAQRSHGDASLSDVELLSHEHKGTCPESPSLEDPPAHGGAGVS

EC50 (A1 adenosine receptor [1]; [8]) [nM]	EC50 (A2 adenosine receptor [2]; [9]) [nM]	EC50 (A2 adenosine receptor [2]; [10]) [nM]	Selectivity (SQPR/CF) (A2 adenosine receptor [3]; [11])	SMILES	minimal effective concentration (guinea pig heart; [7]) [µM]	other results
2630	4.17	4.2	767	Nc1nc(NN=Cc2ccc3ccccc3c2)nc2c1ncn2[C@@H]1O[C@H](CO)[C@@H](O)[C@H]1O [Example 4, 6-amino-2-{2-[(2-naphthyl)methylene]diazanyl}-9-(β-D-ribofuranosyl)-9H-purine]	10.1	–
–	–	5.7	42,000	Nc1nc(NN=Cc2ccccn2)nc2c1ncn2[C@@H]1O[C@H](CO)[C@@H](O)[C@H]1O [Example 13, 6-amino-2-{2-[(2-pyridyl)methylene]diazanyl}-9-(β-D-ribofuranosyl)-9H-purine]	–	minimal effective concentration (guinea pig heart; second degree heart block, unit inferred): 110 µM
–	–	–	–	Nc1ncnc2c1ncn2[C@@H]1O[C@H](CO)[C@@H](O)[C@H]1O [Adenosine, 9-β-D-ribofuranosyl-9H-purin-6-amine]	–	cardiovascular activity [4]: hypotensive and bradycardia activity
–	–	–	–	Nc1nc(OCCC2CCCCC2)nc2c1ncn2[C@@H]1O[C@H](CO)[C@@H](O)[C@H]1O [2-(2-cyclohexylethoxy)adenosine]	–	EC50 (A2 adenosine receptor [5]): 1 nM
66100	1.95	–	–	Nc1nc(NN=CCCCc2ccccc2)nc2c1ncn2[C@@H]1O[C@H](CO)[C@@H](O)[C@H]1O [3-Ph Propyl, H]	–	–
20000	79.4	80.4	301	NNc1nc(N)c2ncn([C@@H]3O[C@H](CO)[C@@H](O)[C@H]3O)c2n1 [Example 8, 6-amino-2-diazanyl-9-(β-D-ribofuranosyl)-9H-purine, reference compound]	18.2	EC50 (A1 adenosine receptor [1]; [12]): 14600 nM
–	–	–	–	Nc1nc(NN=CC2CC=CCC2)nc2c1ncn2[C@@H]1O[C@H](CO)[C@@H](O)[C@H]1O (some centres unmarked) [3-Cyclo-hexenyl, H]	–	-LOG EC50 A1 (A1 adenosine receptor [6]): 4.86
83200	2.29	2.3	43,347	Nc1nc(NN=Cc2ccccc2)nc2c1ncn2[C@@H]1O[C@H](CO)[C@@H](O)[C@H]1O [Example 7, 6-amino-2-{2-(phenylmethylene)diazanyl}-9-(β-D-ribofuranosyl)-9H-purine]	216	–
9770	–	–	–	Nc1nc(NN=CCCC2CCCCC2)nc2c1ncn2[C@@H]1O[C@H](CO)[C@@H](O)[C@H]1O [2-C Hexylethyl, H]	–	–
–	–	–	–	COc1ccc(C=NNc2nc(N)c3ncn([C@@H]4O[C@H](CO)[C@@H](O)[C@H]4O)c3n2)cc1 [Example 11, 6-amino-2-{2-[(4-methoxyphenyl)methylene]diazanyl}-9-(β-D-ribofuranosyl)-9H-purine]	50	–
–	–	–	–	Nc1nc(NN=Cc2ccc(Cl)cc2)nc2c1ncn2[C@@H]1O[C@H](CO)[C@@H](O)[C@H]1O [Example 1, 6-amino-2-{2-[(4-chlorophenyl)methylene]diazanyl}-9-(β-D-ribofuranosyl)-9H-purine]	30.4	–
4170	3.24	3.2	1,822	CC(=NNc1nc(N)c2ncn([C@@H]3O[C@H](CO)[C@@H](O)[C@H]3O)c2n1)c1ccc(F)cc1 [Example 10, 6-amino-2-{2-[1-(4-fluorophenyl)ethylidene]diazanyl}-9-(β-D-ribofuranosyl)-9H-purine]	7.3	–
20900	0.468	–	–	CC(C)CCC=NNc1nc(N)c2ncn([C@@H]3O[C@H](CO)[C@@H](O)[C@H]3O)c2n1 [3-Me-1-Bu, H]	–	–
66100	1.78	–	–	Nc1nc(NN=CCCCC2CCCCC2)nc2c1ncn2[C@@H]1O[C@H](CO)[C@@H](O)[C@H]1O [3-C Hexylpropyl, H]	–	–
–	–	15	2,657	Nc1nc(NN=Cc2cccnc2)nc2c1ncn2[C@@H]1O[C@H](CO)[C@@H](O)[C@H]1O [Example 5, 6-amino-2-{2-[(3-pyridyl)methylene]diazanyl}-9-(β-D-ribofuranosyl)-9H-purine]	63.5	–
38900	1.02	–	–	CCCCCC=NNc1nc(N)c2ncn([C@@H]3O[C@H](CO)[C@@H](O)[C@H]3O)c2n1 [1-Pent, H]	–	–
–	–	13	380	CC(=NNc1nc(N)c2ncn([C@@H]3O[C@H](CO)[C@@H](O)[C@H]3O)c2n1)c1ccccc1 [Example 12, 6-amino-2-{2-[1-(phenyl)ethylidene]diazanyl}-9-(β-D-ribofuranosyl)-9H-purine]	11	–
–	2.45	2.5	8,500	Nc1nc(NN=Cc2ccc(F)cc2)nc2c1ncn2[C@@H]1O[C@H](CO)[C@@H](O)[C@H]1O [Example 2, 6-amino-2-{2-[(4-fluorophenyl)methylene]diazanyl}-9-(β-D-ribofuranosyl)-9H-purine]	30.9	EC50 (A1 adenosine receptor [1]; [12]): 12600 nM
–	–	11	2,817	Nc1nc(NN=Cc2ccncc2)nc2c1ncn2[C@@H]1O[C@H](CO)[C@@H](O)[C@H]1O [Example 6, 6-amino-2-{2-[(4-pyridyl)methylene]diazanyl}-9-(β-D-ribofuranosyl)-9H-purine]	68	–
–	–	9.5	110	Nc1nc(NN=Cc2cccc3ccccc23)nc2c1ncn2[C@@H]1O[C@H](CO)[C@@H](O)[C@H]1O [Example 14, 6-amino-2-{2-[(1-naphthyl)methylene]diazanyl}-9-(β-D-ribofuranosyl)-9H-purine]	2	–
–	–	14	4400	Nc1nc(NN=Cc2cccs2)nc2c1ncn2[C@@H]1O[C@H](CO)[C@@H](O)[C@H]1O [Example 15, 6-amino-2-{2-[(2-thienyl)methylene]diazanyl}-9-(β-D-ribofuranosyl)-9H-purine]	93	–

SMILES	EC50 (A1 adenosine receptor [1]; [8]) [nM]	EC50 (A2 adenosine receptor [2]; [9]) [nM]	EC50 (A2 adenosine receptor [2]; [10]) [nM]	Selectivity (SQPR/CF) (A2 adenosine receptor [3]; [11])	minimal effective concentration (guinea pig heart; [7]) [µM]	other results
Nc1nc(NN=CC2CCCCC2)nc2c1ncn2[C@@H]1O[C@H](CO)[C@@H](O)[C@H]1O [Example 3, 6-amino-2-{2-[(cyclohexyl)methylene]diazanyl}-9-(β-D-ribofuranosyl)-9H-purine]	3550	0.257	0.3	–	–	minimal effective concentration (guinea pig heart): 5.92 µM; EC50 (A1 adenosine receptor [1]; [12]): 3550 nM; Selectivity (SQPR/CF) (A2 adenosine receptor [3]): 16,472
Cc1ccc(C=NNc2nc(N)c3ncn([C@@H]4O[C@H](CO)[C@@H](O)[C@H]4O)c3n2)cc1 [Example 9, 6-amino-2-{2-[(4-methylphenyl)methylene]diazanyl}-9-(β-D-ribofuranosyl)-9H-purine]	39800	–	–	–	–	Wenckbach (guinea pig heart; second degree heart block, unit printed nmol (Example 9)): 103,514 nmol
Nc1nc(N)c2ncn([C@@H]3O[C@H](CO)[C@@H](O)[C@H]3O)c2n1 [2-Amino-adenosine, reference compound]	–	224	–	–	–	EC50 (A1 adenosine receptor [1]): 11200 nM
Cc1cccc(C=NNc2nc(N)c3ncn([C@@H]4O[C@H](CO)[C@@H](O)[C@H]4O)c3n2)c1 [Example 16, 6-amino-2-{2-[(3-methylphenyl)methylene]diazanyl}-9-(β-D-ribofuranosyl)-9H-purine]	–	–	4.4	–	–	minimal effective concentration (guinea pig heart): 47 µM; Selectivity (SQPR/CF) (A2 adenosine receptor [3]): 4700
